Assay results from patent publication US20240150340A1, “CDK Inhibitors And Their Use As Pharmaceuticals” (Prelude Therapeutics Incorporated, priority 2022, published 2024).
pIC50: −log10 of the molar value.

Legend:
OVCAR3 p-RB = experiment: pRB ICW Assay in OVCAR3 Cells; type: cell-based; settings: Homo sapiens, OVCAR-3, incubated with compound for 2 hours
Summary of the method: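 In-Cell Western on OVCAR3: phospho-RB antibody signal with DRAQ5 counterstain read at 700 and 800 nm after fixation. Compounds were applied for 2 h at 37° C. as 9-point ½-log dilutions in duplicate; 10 μM reference compound defined full inhibition.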

CDK4/Cyclin D1 = molecular target: T1, CDK4/Cyclin D1 (Homo sapiens, UniProt P11802); experiment: CDK4/CyclinD1 Enzymatic Activity Assay (TR-FRET); type: biochemical; settings: ATP 2 mM final, read-out: CDK4_D1 IC50
T1 construct: purchased ProQinase; host or cells: insect cell
Summary of the method: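 Insect-cell-expressed CDK4/Cyclin D1 (1 nM) with ULight-4E-BP1 (100 nM) and 2 mM ATP in HEPES pH 7.4; 9-dose 3-fold compound series preincubated 20 min, reaction started with 10 mM MgCl2, 45 min at 37° C. Europium anti-P-4E-BP1 TR-FRET read; IC50 from 4-parameter Hill fit.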

CDK2/Cyclin E2 = molecular target: T2, CDK2/Cyclin E2 (Homo sapiens, UniProt P24941); experiment: CDK2/CyclinE2 Enzymatic Activity Assay (TR-FRET); type: biochemical; settings: ATP 1 mM final, read-out: CDK2_E1 IC50
T2 construct: Recombinant protein complex CDK2/Cyclin E2, expressed from insect cell, was purchased from ProQinase
Summary of the method: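 Recombinant insect-cell CDK2/Cyclin E2 (1 nM) phosphorylated ULight-4E-BP1 (50 nM) with 1 mM ATP in HEPES pH 7.4 buffer, after 20 min compound preincubation; MgCl2 (10 mM) started the 45 min reaction at 37° C. Europium anti-phospho-4E-BP1 TR-FRET read; 9-dose IC50 by 4-parameter fit.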

T1 sequence (P11802 whole entry): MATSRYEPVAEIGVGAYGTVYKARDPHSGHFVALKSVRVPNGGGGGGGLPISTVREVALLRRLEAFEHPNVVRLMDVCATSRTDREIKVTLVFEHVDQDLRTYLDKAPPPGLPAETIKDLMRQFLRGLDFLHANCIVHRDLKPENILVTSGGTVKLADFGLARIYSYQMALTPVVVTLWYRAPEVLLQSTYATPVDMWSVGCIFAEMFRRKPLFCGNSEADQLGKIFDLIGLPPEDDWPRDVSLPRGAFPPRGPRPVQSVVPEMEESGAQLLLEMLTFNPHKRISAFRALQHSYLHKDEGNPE
T1 sequence (P24385 whole entry partner): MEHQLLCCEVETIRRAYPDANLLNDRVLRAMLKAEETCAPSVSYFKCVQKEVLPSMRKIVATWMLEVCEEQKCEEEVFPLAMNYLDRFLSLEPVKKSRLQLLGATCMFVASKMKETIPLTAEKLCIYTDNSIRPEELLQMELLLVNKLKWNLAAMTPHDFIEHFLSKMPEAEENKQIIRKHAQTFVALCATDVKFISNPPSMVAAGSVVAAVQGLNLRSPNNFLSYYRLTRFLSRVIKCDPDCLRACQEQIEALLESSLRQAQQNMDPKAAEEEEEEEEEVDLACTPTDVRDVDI

| pIC50 (OVCAR3 p-RB) | pIC50 (CDK4/Cyclin D1) | pIC50 (CDK2/Cyclin E2) | Compound |
| --- | --- | --- | --- |
| 6.30 to 7.00 | < 6.30 | ≥ 7.00 | Cc1sc(-c2nc(N[C@H]3CCN(S(=O)(=O)c4cnc(N)s4)C[C@H]3C)ncc2C(F)(F)F)cc1C#N [Example 94, 5-(2-(((3R,4S)-1-((2-aminothiazol-5-yl)sulfonyl)-3-methylpiperidin-4-yl)amino)-5-(trifluoromethyl)pyrimidin-4-yl)-2-methylthiophene-3-carbonitrile] |
| ≥ 7.00 | ≥ 7.00 | ≥ 7.00 | C[C@@H]1CN(S(=O)(=O)c2cnn(C)c2)CC[C@@H]1Nc1ncc(C(F)(F)F)c(-c2ncc(C(C)(C)O)s2)n1 [Example 100, 2-(2-(2-(((3R,4S)-3-methyl-1-((1-methyl-1H-pyrazol-4-yl)sulfonyl)piperidin-4-yl)amino)-5-(trifluoromethyl)pyrimidin-4-yl)thiazol-5-yl)propan-2-ol] |
| ≥ 7.00 | ≥ 7.00 | ≥ 7.00 | CC(O)(c1cnc(-c2nc(NC3CCN(S(C)(=O)=O)CC3)ncc2C(F)(F)F)s1)C(F)(F)F (stereo not drawn) [Example 103, 1,1,1-trifluoro-2-(2-(2-((1-(methylsulfonyl)piperidin-4-yl)amino)-5-(trifluoromethyl)pyrimidin-4-yl)thiazol-5-yl)propan-2-ol] |
| ≥ 7.00 | ≥ 7.00 | ≥ 7.00 | C[C@@H]1CN(S(=O)(=O)c2cn(C)cn2)CC[C@@H]1Nc1ncc(C(F)(F)F)c(-c2ncc(C(C)(O)C(F)F)s2)n1 (stereo partly drawn) [Example 104, 1,1-difluoro-2-(2-(2-(((3R,4S)-3-methyl-1-((1-methyl-1H-imidazol-4-yl)sulfonyl)piperidin-4-yl)amino)-5-(trifluoromethyl)pyrimidin-4-yl)thiazol-5-yl)propan-2-ol] |
| ≥ 7.00 | ≥ 7.00 | ≥ 7.00 | CC(C)(O)Cc1cnc(-c2nc(NC3CCN(S(C)(=O)=O)CC3)ncc2C(F)(F)F)s1 [Example 107, 2-Methyl-1-(2-(2-((1-(methylsulfonyl)piperidin-4-yl)amino)-5-(trifluoromethyl)pyrimidin-4-yl)thiazol-5-yl)propan-2-ol] |
| 6.30 to 7.00 | ≥ 7.00 | ≥ 7.00 | CC(C)(O)Cc1cnc(-c2nc(N[C@H]3CCN(S(C)(=O)=O)C[C@H]3F)ncc2C(F)(F)F)s1 [Example 108, 1-(2-(2-(((3R,4S)-3-fluoro-1-(methylsulfonyl)piperidin-4-yl)amino)-5-(trifluoromethyl)pyrimidin-4-yl)thiazol-5-yl)-2-methylpropan-2-ol] |
| ≥ 7.00 | ≥ 7.00 | ≥ 7.00 | Cn1cc(S(=O)(=O)N2CC[C@H](Nc3ncc(C(F)(F)F)c(-c4ncc(CC(C)(C)O)s4)n3)[C@H](F)C2)cn1 [Example 109, 1-(2-(2-(((3R,4S)-3-fluoro-1-((1-methyl-1H-pyrazol-4-yl)sulfonyl)piperidin-4-yl)amino)-5-(trifluoromethyl)pyrimidin-4-yl)thiazol-5-yl)-2-methylpropan-2-ol] |
| 6.30 to 7.00 | ≥ 7.00 | ≥ 7.00 | CC(O)c1cnc(-c2nc(N[C@H]3CCN(S(=O)(=O)c4cnn(C)c4)C[C@H]3F)ncc2C(F)(F)F)s1 (stereo partly drawn) [Example 114, 1-(2-(2-(((3R,4S)-3-fluoro-1-((1-methyl-1H-pyrazol-4-yl)sulfonyl)piperidin-4-yl)amino)-5-(trifluoromethyl)pyrimidin-4-yl)thiazol-5-yl)ethan-1-ol] |
| < 6.30 | 6.30 to 7.00 | ≥ 7.00 | C[C@@H]1CN(S(C)(=O)=O)CC[C@@H]1Nc1ncc(C(F)(F)F)c(-c2ncc(CC(C)(C)O)s2)n1 [Example 131, 2-methyl-1-(2-(2-(((3R,4S)-3-methyl-1-(methylsulfonyl)piperidin-4-yl)amino)-5-(trifluoromethyl)pyrimidin-4-yl)thiazol-5-yl)propan-2-ol] |
| < 6.30 | 6.30 to 7.00 | ≥ 7.00 | C[C@@H]1CN(S(C)(=O)=O)CC[C@@H]1Nc1ncc(C(F)(F)F)c(-c2ncc(C(C)(C)O)s2)n1 [Example 132, 2-(2-(2-(((3R,4S)-3-methyl-1-(methylsulfonyl)piperidin-4-yl)amino)-5-(trifluoromethyl)pyrimidin-4-yl)thiazol-5-yl)propan-2-ol] |
| 6.30 to 7.00 | 6.30 to 7.00 | ≥ 7.00 | C[C@@H]1CN(S(C)(=O)=O)CC[C@@H]1Nc1ncc(C(F)(F)F)c(-c2ncc(C(C)(O)C(F)F)s2)n1 (stereo partly drawn) [Example 142, 1,1-difluoro-2-(2-(2-(((3R,4S)-3-methyl-1-(methylsulfonyl)piperidin-4-yl)amino)-5-(trifluoromethyl)pyrimidin-4-yl)thiazol-5-yl)propan-2-ol] |
